Test results reported in patent US9416126B2, “Compounds inhibiting leucine-rich repeat kinase enzyme activity” (Merck Sharp & Dohme Corp., priority 2013, dated 2016).

Molecular target: LRRK2(G2019S mutation, GST-LRRK2(amino acids 970-2527)) (Homo sapiens (Human), UniProt Q5S007, G2019S)
Assay: LRRK2 Km ATP LanthaScreen Assay
Assay type: biochemical
Conditions: Km ATP (184 μM ATP solution), G2019S LRRK2, mean IC50
Procedure: Unless otherwise noted, all LRRK2 IC50 data presented in tables refers to the LRRK2 Km ATP LanthaScreen™ Assay that is described in the Biological Assay section.
The data presented for the 5 mM and Km ATP LanthaScreen™ Assay represents mean IC50 values based on several test results and may have reasonable. deviations depending on the specific conditions and reagents used. Reagents for the LRRK2 5 mM and Km ATP LanthaScreen™ Assay were purchased from Life Technologies Corporation.
LRRK2 Km ATP LanthaScreen™ Assay
a) 400 nl of a 1:2.15 serial dilution of test compound(98 μM top assay concentration) is spotted via Labcyte Echo to certain wells in a 384 well black, untreated plate. Control wells contain 400 nl of either DMSO or 400 nl of a known inhibitor in DMSO.
b) 10 μl of a 2.5 nM LRRK2(G2019S mutation, GST-LRRK2(amino acids 970-2527)) enzyme solution in 1× assay buffer(50 mM Tris pH 8.5, 10 mM MgCl2, 0.01% Brij-35, 1 mM EGTA, 2 mM DTT, 0.05 mM NaVO4) is added to all wells.
c) A 30 minute room temperature incubation is followed by addition of 10 μl of 800 nM fluorescein labeled LRRKtide peptide substrate and 184 μM ATP solution in 1× assay buffer to all wells.
d) After a 60 minute room temperature incubation, 20 μl of TR-FRET Dilution Buffer(Invitrogen PV3756B) containing 4 nM Tb-labeled anti-phospho LRRKtide antibody and 20 mM EDTA is added to all wells.
e) Plates are incubated at room temperature for 1 hour and read on an Envision™ multi-mode plate reader with LanthaScreen™ settings. Results are analysed using Assay Data Analyzer.

Sequence of LRRK2(G2019S mutation, GST-LRRK2(amino acids 970-2527)) (Q5S007 970-2527 G2019S): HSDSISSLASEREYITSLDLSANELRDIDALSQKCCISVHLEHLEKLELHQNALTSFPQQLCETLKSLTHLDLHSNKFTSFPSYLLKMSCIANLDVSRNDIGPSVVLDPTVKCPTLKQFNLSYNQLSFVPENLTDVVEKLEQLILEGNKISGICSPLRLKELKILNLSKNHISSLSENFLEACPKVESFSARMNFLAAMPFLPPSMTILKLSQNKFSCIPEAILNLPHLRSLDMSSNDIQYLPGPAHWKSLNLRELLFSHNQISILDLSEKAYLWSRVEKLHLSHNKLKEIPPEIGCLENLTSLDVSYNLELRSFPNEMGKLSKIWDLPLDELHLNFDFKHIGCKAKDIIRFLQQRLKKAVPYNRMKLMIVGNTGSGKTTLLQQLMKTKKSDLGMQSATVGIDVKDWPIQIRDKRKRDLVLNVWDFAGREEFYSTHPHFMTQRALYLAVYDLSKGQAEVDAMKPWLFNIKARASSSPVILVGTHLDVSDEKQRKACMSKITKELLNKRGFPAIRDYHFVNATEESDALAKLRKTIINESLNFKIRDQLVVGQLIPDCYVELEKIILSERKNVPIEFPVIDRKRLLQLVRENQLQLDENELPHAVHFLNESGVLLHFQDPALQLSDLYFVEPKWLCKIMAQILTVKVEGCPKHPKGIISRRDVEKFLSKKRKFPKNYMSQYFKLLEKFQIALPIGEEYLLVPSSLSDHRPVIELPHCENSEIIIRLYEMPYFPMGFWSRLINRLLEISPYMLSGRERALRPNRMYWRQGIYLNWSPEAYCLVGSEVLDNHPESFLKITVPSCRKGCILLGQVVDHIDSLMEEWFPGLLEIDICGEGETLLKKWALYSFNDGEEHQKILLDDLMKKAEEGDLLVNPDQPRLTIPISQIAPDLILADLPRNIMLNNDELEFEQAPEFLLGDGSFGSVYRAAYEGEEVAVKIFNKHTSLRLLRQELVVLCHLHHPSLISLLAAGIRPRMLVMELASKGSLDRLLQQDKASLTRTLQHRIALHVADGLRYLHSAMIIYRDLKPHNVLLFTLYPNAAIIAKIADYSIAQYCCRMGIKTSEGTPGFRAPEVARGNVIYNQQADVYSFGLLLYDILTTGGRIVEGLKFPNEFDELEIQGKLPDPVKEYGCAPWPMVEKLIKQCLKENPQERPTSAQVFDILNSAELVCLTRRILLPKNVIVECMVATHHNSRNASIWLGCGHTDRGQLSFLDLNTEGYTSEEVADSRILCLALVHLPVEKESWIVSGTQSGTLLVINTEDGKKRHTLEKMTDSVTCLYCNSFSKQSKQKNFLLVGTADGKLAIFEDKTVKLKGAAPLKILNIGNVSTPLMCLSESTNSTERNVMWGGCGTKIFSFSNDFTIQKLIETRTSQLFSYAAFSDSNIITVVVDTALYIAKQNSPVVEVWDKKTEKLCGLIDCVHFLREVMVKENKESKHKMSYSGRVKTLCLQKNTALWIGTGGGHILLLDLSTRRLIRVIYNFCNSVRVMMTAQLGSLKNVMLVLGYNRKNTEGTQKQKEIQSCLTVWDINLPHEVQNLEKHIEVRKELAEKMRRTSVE

| Compound | IC50 [nM] |
| --- | --- |
| Cn1cc(-c2ccc3[nH]nc(-c4cc(N5CCN(C6CC6)CC5)ncn4)c3c2)cn1 [Example A2] | 2.62 |
| Cn1cc(-c2ccc3[nH]nc(-c4cc(N5CCOC6(CC6)C5)ncn4)c3c2)cn1 [Example A4] | 2.01 |
| CN1CCN(c2cc(-c3n[nH]c4ccc(-c5cnn(C)c5)cc34)ncn2)CC1=O [Example A5] | 4.91 |
| CN1CCN(c2cc(-c3n[nH]c4ccc(-c5cnn(C)c5)cc34)ncn2)CC1 [Example A6] | 2.85 |
| COCCNc1cc(-c2n[nH]c3ccc(-c4cnn(C)c4)cc23)ncn1 [Example A7] | 15 |
| COCCOC1CCN(c2cc(-c3n[nH]c4ccc(-c5cnn(C)c5)cc34)ncn2)CC1 [Example A9] | 1.87 |
| Cn1cc(-c2ccc3[nH]nc(-c4cc(N5CC6CCC(C5)O6)ncn4)c3c2)cn1 [Example A10] | 5.18 |
| C[C@@H]1CN(c2cc(-c3n[nH]c4ccc(-c5cnn(C)c5)cc34)ncn2)C[C@H](C)O1 [Example A11] | 1.4 |
| COC1CCN(c2cc(-c3n[nH]c4ccc(-c5cnn(C)c5)cc34)ncn2)CC1 [Example A12] | 2.04 |
| CC(=O)N1CCN(c2cc(-c3n[nH]c4ccc(-c5cnn(C)c5)cc34)ncn2)CC1 [Example A13] | 3.15 |
| Cn1cc(-c2ccc3[nH]nc(-c4cc(N5CCNC(=O)C5)ncn4)c3c2)cn1 [Example A14] | 2.84 |
| CC(C)N1CCN(c2cc(-c3n[nH]c4ccc(-c5cnn(C)c5)cc34)ncn2)CC1 [Example A15] | 0.73 |
| CO[C@H]1CN(c2cc(-c3n[nH]c4ccc(OC(C)C)cc34)ncn2)C[C@@H]1O [Example D1] | 9.9 |
| CC(C)Oc1ccc2[nH]nc(-c3cc(N4CCOC(C)(C)C4)ncn3)c2c1 [Example D3] | 6.37 |
| CC(C)Oc1ccc2[nH]nc(-c3cc(N4CC[S+]([O-])CC4)ncn3)c2c1 [Example D4] | 11.5 |
| CC(C)Oc1ccc2[nH]nc(-c3cc(N4CCC(F)(F)CC4)ncn3)c2c1 [Example D5] | 14.8 |
| CC(C)Oc1ccc2[nH]nc(-c3cc(N4CCN(S(C)(=O)=O)CC4)ncn3)c2c1 [Example D7] | 7.99 |
| CC(C)Oc1ccc2[nH]nc(-c3cc(N4CC5CCC(C4)O5)ncn3)c2c1 [Example D8] | 29.2 |
| CC(C)Oc1ccc2[nH]nc(-c3cc(N4CCN(C)C(=O)C4)ncn3)c2c1 [Example D9] | 11.2 |
| CC(C)Oc1ccc2[nH]nc(-c3cc(N4CCN(C5CC5)CC4)ncn3)c2c1 [Example D10] | 8.28 |

| Compound | IC50 [nM] |
| --- | --- |
| [2H]C1([2H])OC([2H])([2H])C([2H])([2H])N(c2cc(-c3n[nH]c4ccc(OC(C)C)cc34)ncn2)C1([2H])[2H] [Example D11] | 7.12 |
| CC(C)Oc1ccc2[nH]nc(-c3cc(N4CCOC5(CC5)C4)ncn3)c2c1 [Example D12] | 4.04 |
| CC(C)Oc1ccc2[nH]nc(-c3cc(N4CCOCC4C)ncn3)c2c1 (stereo not drawn) [Example D13] | 19.8 |
| CCCN1CCN(c2cc(-c3n[nH]c4ccc(OC(C)C)cc34)ncn2)CC1 [Example D14] | 8.14 |
| COCCNc1cc(-c2n[nH]c3ccc(OC(C)C)cc23)ncn1 [Example D16] | 26.3 |
| CC(C)Oc1ccc2[nH]nc(-c3cc(N4CCN(C(C)C)CC4)ncn3)c2c1 [Example D17] | 7.68 |
| CC(C)Oc1ccc2[nH]nc(-c3cc(N4CCNCC4)ncn3)c2c1 [Example D18] | 12.4 |
| COCCN(C)c1cc(-c2n[nH]c3ccc(OC(C)C)cc23)ncn1 [Example D19] | 66.5 |
| CC(C)Oc1ccc2[nH]nc(-c3cc(N4CCO[C@@H](C)C4)ncn3)c2c1 [Example D20] | 21.4 |
| COCCN1CCN(c2cc(-c3n[nH]c4ccc(OC(C)C)cc34)ncn2)CC1=O [Example D21] | 5.59 |
| CC(C)Oc1ccc2[nH]nc(-c3cc(N4CCN(C(=O)C5CC5)CC4)ncn3)c2c1 [Example D22] | 4.15 |
| CC(C)Oc1ccc2[nH]nc(-c3cc(N4CCN(S(=O)(=O)C5CC5)CC4)ncn3)c2c1 [Example D23] | 5.51 |
| CC(C)Oc1cc2c(-c3cc(N4CCOCC4)ncn3)n[nH]c2cc1F [Example D26] | 2.39 |
| CC(C)Oc1ccc2[nH]nc(-c3cc(N4C=CSCC4)ncn3)c2c1 [Example D27] | 6.08 |
| CCN1CCN(c2cc(-c3n[nH]c4ccc(OC(C)C)cc34)ncn2)CC1=O [Example D28] | 5.6 |
| CC(C)Oc1ccc2[nH]nc(-c3cc(N4CCN(C(C)C)C(=O)C4)ncn3)c2c1 [Example D29] | 5.28 |
| CO[C@@H]1CCN(c2cc(-c3n[nH]c4ccc(OC(C)C)cc34)ncn2)C1 [Example D30] | 7.47 |
| CO[C@H]1CCN(c2cc(-c3n[nH]c4ccc(OC(C)C)cc34)ncn2)C1 [Example D31] | 8.79 |
| CC(C)Oc1ccc2[nH]nc(-c3cc(N4CCN(CCF)C(=O)C4)ncn3)c2c1 [Example D33] | 3.3 |
| CCCN1CCN(c2cc(-c3n[nH]c4ccc(OC(C)C)cc34)ncn2)CC1=O [Example D34] | 4.39 |

| Compound | IC50 [nM] |
| --- | --- |
| CC(C)Oc1cc2c(-c3cc(N4C[C@H](F)[C@@H](F)C4)ncn3)n[nH]c2cc1F [Example D35] | 4.78 |
| CCN1CCN(c2cc(-c3n[nH]c4cc(F)c(OC(C)C)cc34)ncn2)CC1=O [Example D36] | 4.16 |
| CC(C)Oc1cc2c(-c3cc(N4CCNC(=O)C4)ncn3)n[nH]c2cc1F [Example D37] | 2.89 |
| CC(C)Oc1cc2c(-c3cc(N4CCO[C@@H](C)C4)ncn3)n[nH]c2cc1F [Example D38] | 5.01 |
| CC(C)Oc1cc2c(-c3cc(N4CCO[C@H](C)C4)ncn3)n[nH]c2cc1F [Example D39] | 2.87 |
| CC(C)Oc1cc2c(-c3cc(N4CCOCC4C)ncn3)n[nH]c2cc1F (stereo not drawn) [Example D40] | 5.54 |
| CC(C)Oc1ccc2[nH]nc(-c3cc(N4C[C@H](O)[C@@H](O)[C@@H]4C)ncn3)c2c1 [Example D42] | 18.1 |
| CC(C)Oc1ccc2[nH]nc(-c3cc(N4CC[C@@H](N)C4)ncn3)c2c1 [Example D43] | 8.78 |
| CC(C)Oc1ccc2[nH]nc(-c3cc(N4CC[C@H](N)C4)ncn3)c2c1 [Example D44] | 6.68 |
| CC(C)Oc1cc2c(-c3cc(N4CCN(C5CC5)CC4)ncn3)n[nH]c2cc1F [Example D45] | 3.99 |
| CCN1CCN(c2cc(-c3n[nH]c4cc(F)c(OC(C)C)cc34)ncn2)CC1 [Example D46] | 2.97 |
| CC(C)Oc1cc2c(-c3cc(N4CC5CCC(C4)O5)ncn3)n[nH]c2cc1F [Example D47] | 14.6 |
| CC(C)Oc1ccc2[nH]nc(-c3cc(N4CCC5(CCCO5)CC4)ncn3)c2c1 [Example D49] | 4.13 |
| CC(C)Oc1cc2c(-c3cc(N4CCN(C)[C@@H](C)C4)ncn3)n[nH]c2cc1F [Example D50] | 1.2 |
| CC(C)Oc1cc2c(-c3cc(N4CCN(C)[C@H](C)C4)ncn3)n[nH]c2cc1F [Example D51] | 1.3 |
| CC(C)Oc1ccc2[nH]nc(-c3cc(N4C[C@H](N)C[C@@H]4C)ncn3)c2c1 [Example D52] | 11.1 |
| CCC(=O)N1CCN(c2cc(-c3n[nH]c4ccc(OC(C)C)cc34)ncn2)CC1 [Example D53] | 4.26 |
| CC(C)Oc1ccc2[nH]nc(-c3cc(N4C[C@@H]5C[C@H]4CO5)ncn3)c2c1 [Example D54] | 5.94 |
| CC(C)Oc1ccc2[nH]nc(-c3cc(N4C[C@H](O)[C@@H](N)[C@@H]4C)ncn3)c2c1 [Example D55] | 14.4 |
| CC(C)Oc1cc2c(-c3cc(N4CCN(c5cnn(C)c5)CC4)ncn3)n[nH]c2cc1F [Example D56] | 2.19 |
